Test results reported in patent publication US10597388B2, “Pyridazinone herbicides” (FMC CORPORATION, priority 2014, dated 2020).

Assays:
Assay in all cases: Test C greenhouse herbicide test, pre- and postemergence
Assay type in all cases: in vivo
[1] = tested on: lambsquarters (Chenopodium album)
Summary of the method: (§1)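 Pre- and postemergence greenhouse screen; values are visual control ratings, 0 meaning no effect and 100 complete kill, assigned relative to untreated plants after 13 to 15 d.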

soybean (Glycine max) = tested on: soybean (Glycine max)
Summary of the method: as §1

[2] = tested on: barnyardgrass (Echinochloa crus-galli)
Summary of the method: as §1

[3] = tested on: blackgrass (Alopecurus myosuroides)
Summary of the method: as §1

[4] = tested on: foxtail, giant (giant foxtail, Setaria faberii)
Summary of the method: as §1

[5] = tested on: velvetleaf (Abutilon theophrasti)
Summary of the method: as §1

[6] = tested on: waterhemp (common waterhemp, Amaranthus rudis)
Summary of the method: as §1

[7] = tested on: crabgrass, large (large crabgrass, Digitaria sanguinalis)
Summary of the method: as §1

corn (Zea mays) = tested on: corn (Zea mays)
Summary of the method: as §1

[8] = tested on: oilseed rape (Brassica napus)
Summary of the method: as §1

[9] = tested on: nutsedge, yellow (yellow nutsedge, Cyperus esculentus)
Summary of the method: as §1

[10] = tested on: ryegrass, Italian (Italian ryegrass, Lolium multiflorum)
Summary of the method: as §1

[11] = tested on: morningglory (Ipomoea coccinea)
Summary of the method: as §1

[12] = tested on: galium (catchweed bedstraw, Galium aparine)
Summary of the method: as §1

[13] = tested on: ragweed (common ragweed, Ambrosia elatior)
Summary of the method: as §1

[14] = Postemergence, 31 g ai/ha, scale 0 to 100 (0 no effect, 100 complete control)
[15] = Postemergence, 62 g ai/ha, 0 to 100 scale (0 no effect, 100 complete control)
[16] = Postemergence, 250 g ai/ha, scale 0 to 100, 0 no effect, 100 complete control, 13 to 15 d
[17] = Preemergence, 31 g ai/ha, scale 0 to 100, 0 is no effect, 100 is complete control
[18] = Preemergence, 62 g ai/ha, scale 0 to 100, 0 is no effect, 100 is complete control
[19] = Preemergence, 125 g ai/ha, scale 0 to 100, 0 is no effect, 100 is complete control
[20] = Preemergence, 250 g ai/ha, scale 0 to 100, 0 no effect, 100 complete control
[21] = postemergence, 125 g ai/ha, scale 0 to 100, 0 no effect, 100 complete control

Cc1nn(C)c(=O)c(-c2ccc(Cl)c3ccccc23)c1O [Compound 139]
Plant response rating, Lambsquarters [1, 14]: 98 | Lambsquarters plant response rating [1, 15]: 95 | Plant response rating, Lambsquarters [1, 16]: 100 | Plant response rating, Lambsquarters [1, 17]: 100 | Plant response rating, Lambsquarters [1, 18]: 90 | Plant response rating, Lambsquarters [1, 19]: 95 | Lambsquarters plant response rating [1, 20]: 98 | Lambsquarters plant response rating [1, 21]: 100 | Plant response rating, Soybean (soybean (Glycine max); [14]): 45 | Soybean plant response rating (soybean (Glycine max); [15]): 55 | Plant response rating, Soybean (soybean (Glycine max); [16]): 60 | Plant response rating, Soybean (soybean (Glycine max); [17]): 25 | Plant response rating, Soybean (soybean (Glycine max); [18]): 35 | Plant response rating, Soybean (soybean (Glycine max); [19]): 60 | Soybean plant response rating (soybean (Glycine max); [20]): 80 | Soybean plant response rating (soybean (Glycine max); [21]): 65 | Plant response rating, Barnyardgrass [2, 14]: 25 | Barnyardgrass plant response rating [2, 15]: 20 | Plant response rating, Barnyardgrass ([2]; Postemergence, 125 g ai/ha, scale 0 to 100, 0 is no effect, 100 is complete control): 40 | Plant response rating, Barnyardgrass [2, 16]: 60 | Plant response rating, Barnyardgrass [2, 17]: 20 | Plant response rating, Barnyardgrass [2, 18]: 55 | Plant response rating, Barnyardgrass [2, 19]: 75 | Barnyardgrass plant response rating [2, 20]: 95 | Plant response rating, Blackgrass [3, 14]: 20 | Blackgrass plant response rating [3, 15]: 50 | Plant response rating, Blackgrass [3, 16]: 10 | Plant response rating, Blackgrass [3, 17]: 50 | Plant response rating, Blackgrass [3, 18]: 55 | Plant response rating, Blackgrass [3, 19]: 60 | Blackgrass plant response rating [3, 20]: 90 | Blackgrass plant response rating [3, 21]: 60 | Plant response rating, Foxtail, Giant [4, 14]: 20 | Foxtail, Giant plant response rating [4, 15]: 30 | Plant response rating, Foxtail, Giant [4, 16]: 60 | Plant response rating, Foxtail, Giant [4, 17]: 35 | Plant response rating, Foxtail, Giant [4, 18]: 65 | Plant response rating, Foxtail, Giant [4, 19]: 85 | Foxtail, Giant plant response rating [4, 20]: 95 | Foxtail, Giant plant response rating [4, 21]: 30 | Plant response rating, Velvetleaf [5, 14]: 70 | Velvetleaf plant response rating [5, 15]: 80 | Plant response rating, Velvetleaf [5, 16]: 100 | Plant response rating, Velvetleaf [5, 17]: 60 | Plant response rating, Velvetleaf [5, 18]: 85 | Plant response rating, Velvetleaf [5, 19]: 100 | Velvetleaf plant response rating [5, 20]: 100 | Velvetleaf plant response rating [5, 21]: 95 | Plant response rating, Waterhemp [6, 14]: 98 | Waterhemp plant response rating [6, 15]: 100 | Plant response rating, Waterhemp [6, 16]: 100 | Plant response rating, Waterhemp [6, 17]: 100 | Plant response rating, Waterhemp [6, 18]: 100 | Plant response rating, Waterhemp [6, 19]: 100 | Waterhemp plant response rating [6, 20]: 100 | Waterhemp plant response rating [6, 21]: 100 | Plant response rating, Crabgrass, Large [7, 14]: 20 | Crabgrass, Large plant response rating [7, 15]: 10 | Plant response rating, Crabgrass, Large [7, 16]: 40 | Plant response rating, Crabgrass, Large [7, 17]: 5 | Plant response rating, Crabgrass, Large [7, 18]: 30 | Plant response rating, Crabgrass, Large [7, 19]: 20 | Crabgrass, Large plant response rating [7, 20]: 50 | Crabgrass, Large plant response rating [7, 21]: 30 | Plant response rating, Corn (corn (Zea mays); [14]): 5 | Corn plant response rating (corn (Zea mays); [15]): 0 | Plant response rating, Corn (corn (Zea mays); [16]): 15 | Plant response rating, Corn (corn (Zea mays); [17]): 0 | Plant response rating, Corn (corn (Zea mays); [18]): 0 | Plant response rating, Corn (corn (Zea mays); [19]): 10 | Corn plant response rating (corn (Zea mays); [20]): 15 | Corn plant response rating (corn (Zea mays); [21]): 15 | Plant response rating, Oilseed Rape [8, 14]: 95 | Oilseed Rape plant response rating [8, 15]: 95 | Plant response rating, Oilseed Rape [8, 16]: 95 | Plant response rating, Oilseed Rape [8, 17]: 20 | Plant response rating, Oilseed Rape [8, 18]: 98 | Plant response rating, Oilseed Rape [8, 19]: 98 | Oilseed Rape plant response rating [8, 20]: 100 | Oilseed Rape plant response rating [8, 21]: 98 | Plant response rating, Nutsedge, Yellow [9, 14]: 55 | Nutsedge, Yellow plant response rating [9, 15]: 75 | Plant response rating, Nutsedge, Yellow [9, 16]: 85 | Plant response rating, Nutsedge, Yellow [9, 17]: 65 | Plant response rating, Nutsedge, Yellow [9, 18]: 60 | Plant response rating, Nutsedge, Yellow [9, 19]: 85 | Nutsedge, Yellow plant response rating [9, 20]: 90 | Nutsedge, Yellow plant response rating [9, 21]: 70 | Plant response rating, Ryegrass, Italian [10, 14]: 5 | Ryegrass, Italian plant response rating [10, 15]: 10 | Plant response rating, Ryegrass, Italian [10, 16]: 60 | Plant response rating, Ryegrass, Italian [10, 17]: 95 | Plant response rating, Ryegrass, Italian [10, 18]: 100 | Plant response rating, Ryegrass, Italian [10, 19]: 100 | Ryegrass, Italian plant response rating [10, 20]: 100 | Ryegrass, Italian plant response rating [10, 21]: 35 | Plant response rating, Morningglory [11, 14]: 98 | Morningglory plant response rating [11, 15]: 100 | Plant response rating, Morningglory [11, 16]: 100 | Plant response rating, Morningglory [11, 17]: 85 | Plant response rating, Morningglory [11, 18]: 90 | Plant response rating, Morningglory [11, 19]: 95 | Morningglory plant response rating [11, 20]: 98 | Morningglory plant response rating [11, 21]: 100 | Plant response rating, Galium [12, 14]: 95 | Galium plant response rating [12, 15]: 95 | Plant response rating, Galium [12, 16]: 100 | Plant response rating, Galium [12, 17]: 90 | Plant response rating, Galium [12, 18]: 90 | Plant response rating, Galium [12, 19]: 100 | Galium plant response rating [12, 20]: 100 | Galium plant response rating [12, 21]: 100 | Plant response rating, Ragweed [13, 14]: 0 | Ragweed plant response rating [13, 15]: 0 | Plant response rating, Ragweed [13, 16]: 0 | Plant response rating, Ragweed [13, 17]: 75 | Plant response rating, Ragweed [13, 18]: 90 | Plant response rating, Ragweed [13, 19]: 95 | Ragweed plant response rating [13, 20]: 100 | Ragweed plant response rating [13, 21]: 0
